Data as given in US20090163481A1, “PPAR-DELTA LIGANDS AND METHODS OF THEIR USE” (priority 2007, published 2009).
Where two headings read alike, the source gives them in different places.

Assays:
[1] = biological target: T1, ligand binding domain of PPAR delta (Homo sapiens, UniProt Q03181); assay: LANTHA SCREEN TR-FRET PPARδ Competitive Binding Assay
T1 construct: purchased Invitrogen
T1 sequence (Q03181 211-439 limits assumed): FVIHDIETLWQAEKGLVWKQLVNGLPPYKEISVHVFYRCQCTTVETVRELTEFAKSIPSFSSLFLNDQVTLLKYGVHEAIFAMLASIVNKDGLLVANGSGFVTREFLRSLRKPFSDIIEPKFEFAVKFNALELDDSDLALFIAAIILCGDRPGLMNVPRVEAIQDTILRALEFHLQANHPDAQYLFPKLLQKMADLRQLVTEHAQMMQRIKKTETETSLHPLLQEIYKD
Method: (§1) The LANTHA SCREEN™ TR-FRET PPARδ Competitive Binding Assay was conducted for a variety of compounds according to the instructions provided by the manufacturer (Invitrogen). In addition, proliferation assays were conducted. In Table 2, “Prolif IC50” is the concentration that inhibits cell viability (or growth) by 50% relative to a vehicle control, and “TR-F binding IC50 (μM)” is the concentration that competes binding by a labeled pan-agonist to the ligand binding domain of PPAR delta, by 50%.

[2] = Proliferation assay of Table 2 (cell line not stated); assay type: cell-based; conditions: concentration that inhibits cell viability (or growth) by 50% relative to vehicle control; read-out: Prolif IC50
Method: as §1

[3] = biological target: T2, PPARδ (Homo sapiens, UniProt Q03181); assay: PPRE promoter/luciferase reporter (transactivation) assay in U2-OS cells; assay type: cell-based
T2 construct: expressed in transfected cells; host or cells: U2-OS (human bone cancer line)
T2 sequence (Q03181 1-441): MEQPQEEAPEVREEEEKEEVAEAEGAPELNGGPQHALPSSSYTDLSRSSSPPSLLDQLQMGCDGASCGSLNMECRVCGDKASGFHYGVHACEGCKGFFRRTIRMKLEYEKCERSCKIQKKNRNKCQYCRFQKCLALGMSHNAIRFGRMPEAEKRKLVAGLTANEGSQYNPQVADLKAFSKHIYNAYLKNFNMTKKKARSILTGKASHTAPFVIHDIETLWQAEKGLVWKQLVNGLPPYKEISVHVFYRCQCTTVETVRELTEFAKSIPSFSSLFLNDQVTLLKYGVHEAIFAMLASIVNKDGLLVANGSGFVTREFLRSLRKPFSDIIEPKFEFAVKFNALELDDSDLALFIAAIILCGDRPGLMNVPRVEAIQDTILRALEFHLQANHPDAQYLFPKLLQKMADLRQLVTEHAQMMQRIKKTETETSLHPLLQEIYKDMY
Method: (§2) General Testing Procedures. Each ligand was screened for PPARδ binding and transactivation activity through the use of two complementary reporter assays as described below. In both systems, transfection efficiency was standardized by co-transfection of a control Renilla luciferase. U2-OS (human bone cancer line) cells were used for both assays because this is the cell line of choice for screening PPAR ligands. At 18 h post-transfection, GW 501, with and without the ligands of the disclosure, was added to the cells and incubated for an additional 24 h. The cells were then harvested and luciferase activities profiled.
A promoter/luciferase reporter assay. This assay involves co-transfection of a PPARδ expression vector and a plasmid containing a luciferase gene under the control of PPARδ responsive DNA element (three copies of a consensus PPAR response element, PPRE). This assay was used to directly test ligand effects on PPARδ-responsive genes.
(§3) Referring to FIG. 3, U2-OS cells were transiently transfected with appropriate expression and reporter vectors. Ligands were added to the cell cultures 24 h post-transfection and incubated for an additional 16 h. Lipoprotein lipase (LPL; 2 μg/ml) was added with VLDL (5 μg/ml) to release PPARδ-active triglycerides. FIG. 3A: PPARδ LBD/Gal4/UAS-tk-luc competition assays with VLDL SR13904 (0-10 μM). The reporter activation (fold increase over blank) is presented relative to GW501516 at 7 nM (fold increase over blank=100). FIG. 3B: PPRE reporter assays using 0, 1, and 10 μM SR13904+VLDL. All assays were repeated in triplicate.

[4] = biological target: T3, LBD of PPARδ protein (Homo sapiens, UniProt Q03181); assay: PPARδ ligand-binding domain (LBD)/Gal4 UAS-tk-luciferase reporter assay in U2-OS cells; assay type: cell-based; conditions: from GAL-4 binding and PPRE transactivation reporter screens
T3 construct: co-transfection of a plasmid containing an LBD/Gal4 fusion construct; expressed in transfected cells; host or cells: U2-OS (human bone cancer line)
T3 sequence (Q03181 211-439 limits assumed): T1 sequence (Q03181 211-439 limits assumed)
Method: as §2
A PPARδ protein ligand-binding domain (LBD) assay. The LBD assay consists of cellular co-transfection of a plasmid containing an LBD/Gal4 fusion construct and a vector containing a UAS-tk-luciferase reporter construct under the transcriptional control of a Gal4 upstream activating sequence. This system was used to test for binding activities of candidate PPARδ ligands to the LBD of PPARδ protein.
as §3

[5] = Solubility in DMSO (noted in binding assay column); assay type: physicochemical
[6] = system: A549 cells; assay: Apoptosis, Cell Death Detection ELISA (DNA fragmentation) in A549 cells; assay type: cell-based, human; conditions: A549, GW501 1 μM with SR13904 15 μM
Method: Referring now to FIG. 6, SR13904 treatment of cancer cells results in increased apoptosis. A549 cells (2×10^4 cells/well) were incubated in 0.5% media (96 well plates) SR13904 for 40 h. The relative degrees of apoptosis were determined using a Cell Death Detection ELISA (Roche). SR represents SR13904. ***p=<0.001 SR vs. SR+GW501.
SR13904 treatment results in increased apoptosis. Down-regulation of PPARδ, either by genetic knockout or by the treatment with 13-S—HODE (15-lipoxygenase-1 product), induces apoptosis in colorectal cancer cells. The effects of SR13904 (15 μM) GW501 (1 μM) on survival of A549 cells (0.5% serum) was determined. Relative degrees of apoptosis were measured using a DNA fragmentation assay.

[7] = competes binding by a labeled pan-agonist by 50%, * = determined by approximation from a semi log graph, read-out: TR-F binding IC50

IC50 [1, 7] [µM]	SMILES	IC50 [2] [µM]	other results
> 30	Cc1cc(SCCn2c3ccccc3c3ccccc32)ccc1OCC(=O)O [SRI-010252]	9	
> 14	Cc1cc(SCC(=O)N(Cc2ccc(Cl)cc2Cl)C(c2ccccc2)c2ccccc2)ccc1OCC(=O)O [SRI-010258]	4.8	
> 30	COc1ccc(CN(C(=O)CSc2ccc(OCC(=O)O)c(C)c2)C(c2ccccc2)c2ccccc2)cc1OC [SRI-010259]	> 40	
> 18	Cc1cc(SCC(=O)N(Cc2ccc(Cl)cc2)C(c2ccccc2)c2ccccc2)ccc1OCC(=O)O [SRI-010256]		
0.85	Cc1cc(SCCOC(c2ccc(F)cc2)c2ccc(F)cc2)ccc1OCC(=O)O [SRI-010249]	5.4	IC50 ([1]; repeat determination of TR-F binding IC50, read-out: repeat TR-F): 1.2 µM
	CCCc1cc(SCc2sc(-c3cccc4ccccc34)nc2C)ccc1OCC(=O)O [SR 13905]		inhibition of PPARδ-mediated transactivation [3]: appear to inhibit
> 30	Cc1cc(SCCC(=O)NC(c2ccccc2)c2ccccc2)ccc1OCC(=O)O [SRI-010266]	> 40	
	CCCc1cc(SCc2sc(-c3ccc(CC)cc3)nc2C)ccc1OCC(N)=O [SR 13910]		PPARδ ligand profile (agonist/antagonist) [4]: low-affinity agonists
1.3	Cc1cc(SCCOC(c2ccccc2)c2ccc(C(F)(F)F)cc2)ccc1OCC(=O)O (stereo not shown) [SRI-010254]	7.4	
	Cc1cc(SCc2sc(-c3ccc(C(C)(C)C)cc3)nc2C)ccc1OCC(=O)O [SR 13906]		PPARδ ligand profile (agonist/antagonist) [4]: low-affinity agonists; inhibition of PPARδ-mediated transactivation [3]: appear to inhibit
3	Cc1cc(SCCOC(c2ccccc2)c2ccccc2)ccc1OCC(=O)O [SRI-010253]	14	
> 25	Cc1cc(SCCC(=O)N(Cc2ccc(F)c(F)c2)C(c2ccccc2)c2ccccc2)ccc1OCC(=O)O [SRI-010263]	9.1	
	Cc1cc(SCC(=O)NC(c2ccccc2)c2ccccc2)ccc1OCC(=O)O [SRI-010260]	> 40	solubility in DMSO [5]: not soluble in DMSO
> 23	Cc1cc(SCC(=O)N(Cc2ccc(F)c(F)c2)C(c2ccccc2)c2ccccc2)ccc1OCC(=O)O [SRI-010257]	9.1	
> 25	Cc1cc(SCCC(=O)N(Cc2ccc(Cl)cc2Cl)C(c2ccccc2)c2ccccc2)ccc1OCC(=O)O [SRI-010264]	5.9	
> 30	COc1ccc(CN(C(=O)CCSc2ccc(OCC(=O)O)c(C)c2)C(c2ccccc2)c2ccccc2)cc1OC [SRI-010265]	> 40	
> 18	Cc1cc(SCCC(=O)N(Cc2ccc(Cl)cc2)C(c2ccccc2)c2ccccc2)ccc1OCC(=O)O [SRI-010262]	5.6	
	Cc1cc(SCc2sc(-c3ccc4ccccc4c3)nc2C)ccc1OCC(=O)O [SR 13961]		PPARδ ligand profile (agonist/antagonist) [4]: low-affinity agonists
> 20	Cc1cc(SCCC(=O)N(Cc2ccccc2)C(c2ccccc2)c2ccccc2)ccc1OCC(=O)O [SRI-010261]	8.5	
> 30	Cc1cc(SCCOC2c3ccccc3-c3ccccc32)ccc1OCC(=O)O [SRI-010248]	9	
13.7	Cc1cc(SCCN2c3ccccc3Sc3ccccc32)ccc1OCC(=O)O [SRI-010251]	7.6	
3.8	Cc1cc(SCCN2c3ccccc3Sc3ccc(C(F)(F)F)cc32)ccc1OCC(=O)O [SRI-010250]	7	
> 12	Cc1cc(SCC(=O)N(Cc2ccccc2)C(c2ccccc2)c2ccccc2)ccc1OCC(=O)O [SRI-010255]	5	
	Cc1cc(SCc2sc(-c3ccc(C(F)(F)F)cc3)nc2C)ccc1OCC(=O)O [GW 501516, reference compound]		effect of co-treatment on SR13904-induced apoptosis [6]: markedly alleviated
	CCCc1cc(SCc2sc(-c3ccc(C(C)(C)C)cc3)nc2C)ccc1OCC(=O)O [SR 13907]		PPARδ ligand profile (agonist/antagonist) [4]: low-affinity agonists; inhibition of PPARδ-mediated transactivation [3]: appear to inhibit
